Where “and” joins values, the source holds several entries; their conditions need not be identical. Equal values may be shown once. Records with an inconclusive call do not appear.
System: CD8F1 mice, subcutaneous mammary adenocarcinoma, T/C%
Assay: NCI In Vivo Anticancer Drug Screen. Data for tumor model Mammary Adenocarcinoma CD8F1 (subcutaneous) in CD8F1
Settings: higher = larger tumour
Outline: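 Antitumor activity is assessed in transplantable-tumor mice by comparing the treated group with a vehicle-treated control group. Survival or tumor size serves as the measure, reported as T divided by C.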

[1] = endpoint: median tumor weight (est.), dose: 25.0 mg/kg/injection, schedule: Q07DX005 (ip), vehicle: Klucel (hydroxypropylcellulose) (HPC)
[2] = endpoint: median tumor weight (est.), dose: 50.0 mg/kg/injection, schedule: Q07DX005 (ip), vehicle: Klucel (hydroxypropylcellulose) (HPC)
[3] = endpoint: median tumor weight change, dose: 250.0 mg/kg/injection, schedule: Q01DX001 (ip), vehicle: saline

With CC[C@@]1(O)C[C@H](OC2CC(N(C)C)C(OC3CC(O)C(OC4CCC(=O)C(C)O4)C(C)O3)C(C)O2)c2c(cc3c(c2O)C(=O)c2c(O)ccc(O)c2C3=O)[C@H]1C(=O)OC (stereo partly specified) the T/C (endpoint: mean tumor weight, dose: 0.5 mg/kg/injection, schedule: Q07DX006 (ip), vehicle: water) was 43 % of control, the T/C (endpoint: mean tumor weight, dose: 1.0 mg/kg/injection, schedule: Q07DX006 (ip), vehicle: water) was 35 % of control and the T/C (endpoint: mean tumor weight, dose: 2.0 mg/kg/injection, schedule: Q07DX006 (ip), vehicle: water) was 5 % of control. The T/C (endpoint: mean tumor weight, dose: 4.0 mg/kg/injection, schedule: Q07DX006 (ip), vehicle: water) was 17 % of control, the T/C (endpoint: median tumor weight (est.), dose: 0.5 mg/kg/injection, schedule: Q07DX005 (ip), vehicle: water) was 69 % of control and 90 % of control and the T/C (endpoint: median tumor weight (est.), dose: 1.0 mg/kg/injection, schedule: Q07DX005 (ip), vehicle: water) was 83 % of control. The T/C (endpoint: median tumor weight (est.), dose: 2.0 mg/kg/injection, schedule: Q07DX005 (ip), vehicle: water) was 37 % of control and 53 % of control, the T/C (endpoint: median tumor weight (est.), dose: 4.0 mg/kg/injection, schedule: Q07DX005 (ip), vehicle: water) was 8 % of control and 26 % of control and the T/C (endpoint: median tumor weight (est.), dose: 8.0 mg/kg/injection, schedule: Q07DX005 (ip), vehicle: water) was 1 % of control.

For Cc1cc(=O)n2c3c(c4c(cc13)c(CN(C)C)cc(=O)n4C)OC2, the T/C (endpoint: median tumor weight change, dose: 62.0 mg/kg/injection, schedule: Q01DX001 (ip), vehicle: saline with Tween-80) was 190 % of control.

For COc1ccc(C(=O)c2no[n+]([O-])c2C(=O)c2ccc(OC)cc2)cc1, the T/C (endpoint: median tumor weight change, dose: 500.0 mg/kg/injection, schedule: Q01DX001 (ip), vehicle: saline with Tween-80) was 84 % of control.

O=S(=O)(SC(S(=O)(=O)c1ccccc1)S(=O)(=O)c1ccccc1)c1ccccc1 was tested, and the T/C [1] was 55 % of control, the T/C [2] was 90 % of control and the T/C (endpoint: median tumor weight (est.), dose: 200.0 mg/kg/injection, schedule: Q07DX005 (ip), vehicle: Klucel (hydroxypropylcellulose) (HPC)) was 112 % of control. The T/C (endpoint: median tumor weight (est.), dose: 400.0 mg/kg/injection, schedule: Q07DX005 (ip), vehicle: Klucel (hydroxypropylcellulose) (HPC)) was 70 % of control.

In the case of Cc1nn(CCO)c(C)c1N=[N+]([O-])c1c(C)nn(CCO)c1C, the T/C (endpoint: median tumor weight (est.), dose: 6.25 mg/kg/injection, schedule: Q07DX005 (ip), vehicle: Klucel (hydroxypropylcellulose) (HPC)) is reported as 57 % of control, the T/C (endpoint: median tumor weight (est.), dose: 12.5 mg/kg/injection, schedule: Q07DX005 (ip), vehicle: Klucel (hydroxypropylcellulose) (HPC)) is reported as 63 % of control and the T/C [1] is reported as 91 % of control. For the same molecule, the T/C [2] was 104 % of control and the T/C (endpoint: median tumor weight (est.), dose: 100.0 mg/kg/injection, schedule: Q07DX005 (ip), vehicle: Klucel (hydroxypropylcellulose) (HPC)) was 43 % of control.

In the case of CN(C)c1ccc(C(=C2C=CC(=[N+](C)C)C=C2)c2ccc(N(C)C)cc2)cc1 (tested in a mixture with another compound), the T/C (endpoint: median tumor weight change, dose: 2.5 mg/kg/injection, schedule: Q01DX001 (ip), vehicle: saline with Tween-80) is reported as 75 % of control and the T/C (endpoint: median tumor weight change, dose: 5.0 mg/kg/injection, schedule: Q01DX001 (ip), vehicle: saline with Tween-80) is reported as 77 % of control.

c1ccc([Te][Te]c2ccccc2)cc1 was tested, and the T/C (endpoint: median tumor weight change, dose: 75.0 mg/kg/injection, schedule: Q01DX001 (ip), vehicle: Klucel (hydroxypropylcellulose) (HPC)) was 97 % of control, the T/C (endpoint: median tumor weight change, dose: 150.0 mg/kg/injection, schedule: Q01DX001 (ip), vehicle: Klucel (hydroxypropylcellulose) (HPC)) was 48 % of control and the T/C (endpoint: median tumor weight change, dose: 300.0 mg/kg/injection, schedule: Q01DX001 (ip), vehicle: Klucel (hydroxypropylcellulose) (HPC)) was 34 % of control.

For O=C1NC(c2ccccc2)N=C2Oc3ccccc3C=C12 (stereo unspecified), the T/C (endpoint: median tumor weight (est.), dose: 3.12 mg/kg/injection, schedule: Q07DX005 (ip), vehicle: saline with Tween-80) was 116 % of control, the T/C (endpoint: median tumor weight (est.), dose: 6.25 mg/kg/injection, schedule: Q07DX005 (ip), vehicle: saline with Tween-80) was 50 % of control and the T/C (endpoint: median tumor weight (est.), dose: 12.5 mg/kg/injection, schedule: Q07DX005 (ip), vehicle: saline with Tween-80) was 109 % of control. The T/C (endpoint: median tumor weight (est.), dose: 25.0 mg/kg/injection, schedule: Q07DX005 (ip), vehicle: saline with Tween-80) was 78 % of control and 101 % of control, the T/C (endpoint: median tumor weight (est.), dose: 50.0 mg/kg/injection, schedule: Q07DX005 (ip), vehicle: saline with Tween-80) was 95 % of control and 115 % of control and the T/C (endpoint: median tumor weight (est.), dose: 100.0 mg/kg/injection, schedule: Q07DX005 (ip), vehicle: saline with Tween-80) was 63 % of control and 85 % of control.

Cc1nnc2ncccn12 was tested, and the T/C [3] was 92 % of control.

In the case of O=C1N[C@H]2[C@H](CS[C@H]2CCCCC(=O)N(CCP(c2ccccc2)c2ccccc2)CCP(c2ccccc2)c2ccccc2)N1, the T/C (endpoint: median tumor weight change, dose: 125.0 mg/kg/injection, schedule: Q01DX001 (ip), vehicle: Klucel (hydroxypropylcellulose) (HPC)) is reported as 97 % of control, the T/C (endpoint: median tumor weight change, dose: 250.0 mg/kg/injection, schedule: Q01DX001 (ip), vehicle: Klucel (hydroxypropylcellulose) (HPC)) is reported as 70 % of control and the T/C (endpoint: median tumor weight change, dose: 500.0 mg/kg/injection, schedule: Q01DX001 (ip), vehicle: Klucel (hydroxypropylcellulose) (HPC)) is reported as 85 % of control. The T/C (endpoint: median tumor weight change, dose: 1000.0 mg/kg/injection, schedule: Q01DX001 (ip), vehicle: Klucel (hydroxypropylcellulose) (HPC)) was 55 % of control and the T/C (endpoint: median tumor weight change, dose: 2000.0 mg/kg/injection, schedule: Q01DX001 (ip), vehicle: Klucel (hydroxypropylcellulose) (HPC)) was 56 % of control.

C=C(C)/C([O-])=N/[N+](C)(C)CC(O)CCCCCCCCCCCC (stereo unspecified) was tested, and the T/C (endpoint: median tumor weight change, dose: 125.0 mg/kg/injection, schedule: Q01DX001 (ip), vehicle: saline) was 63 % of control and the T/C [3] was 111 % of control.

CCC1CC2CN(CCc3c([nH]c4ccccc34)C(C(=O)OC)(c3cc4c(cc3OC)N(C)C3C(O)(C(=O)OC)C(OC(C)=O)C5(CC)C=CCN6CCC43C65)C2)C1 (stereo unspecified) was tested, and the T/C (endpoint: median tumor weight change, dose: 0.31 mg/kg/injection, schedule: Q01DX001 (ip), vehicle: suspension in saline) was 99 % of control, the T/C (endpoint: median tumor weight change, dose: 0.62 mg/kg/injection, schedule: Q01DX001 (ip), vehicle: saline) was 165 % of control and the T/C (endpoint: median tumor weight change, dose: 0.62 mg/kg/injection, schedule: Q01DX001 (ip), vehicle: suspension in saline) was 59 % of control. For the same molecule, the T/C (endpoint: median tumor weight change, dose: 1.25 mg/kg/injection, schedule: Q01DX001 (ip), vehicle: saline) was 110 % of control, the T/C (endpoint: median tumor weight change, dose: 1.25 mg/kg/injection, schedule: Q01DX001 (ip), vehicle: suspension in saline) was 105 % of control and the T/C (endpoint: median tumor weight change, dose: 2.5 mg/kg/injection, schedule: Q01DX001 (ip), vehicle: suspension in saline) was 88 % of control. The T/C (endpoint: median tumor weight change, dose: 5.0 mg/kg/injection, schedule: Q01DX001 (ip), vehicle: saline) was 184 % of control, the T/C (endpoint: median tumor weight change, dose: 5.0 mg/kg/injection, schedule: Q01DX001 (ip), vehicle: suspension in saline) was 109 % of control and the T/C (endpoint: median tumor weight change, dose: 10.0 mg/kg/injection, schedule: Q01DX001 (ip), vehicle: saline) was 99 % of control. For the same molecule, the T/C (endpoint: median tumor weight change, dose: 10.0 mg/kg/injection, schedule: Q01DX001 (ip), vehicle: suspension in saline) was 70 % of control.

In the case of Nc1nc2c(ncn2C2OC(CO)C(O)C2N)c(=O)[nH]1 (stereo unspecified), the T/C (endpoint: median tumor weight (est.), dose: 4.5 mg/kg/injection, schedule: Q07DX005 (ip), vehicle: saline with Tween-80) is reported as 79 % of control, the T/C (endpoint: median tumor weight (est.), dose: 9.0 mg/kg/injection, schedule: Q07DX005 (ip), vehicle: saline with Tween-80) is reported as 99 % of control and the T/C (endpoint: median tumor weight (est.), dose: 36.0 mg/kg/injection, schedule: Q07DX005 (ip), vehicle: saline with Tween-80) is reported as 172 % of control. For the same molecule, the T/C (endpoint: median tumor weight (est.), dose: 72.0 mg/kg/injection, schedule: Q07DX005 (ip), vehicle: saline with Tween-80) was 106 % of control.

For CC(=O)OC1C(O)C(C)OC(OC2C(OC(=O)C3CCC4C(C3)OC3(CC(OC(=O)/C=C/c5ccccc5)C(C)CO3)C43CO3)OC(C)C(O)C2OC(C)=O)C1O (stereo unspecified), the T/C (endpoint: median tumor weight change, dose: 10.0 mg/kg/injection, schedule: Q01DX001 (ip), vehicle: distilled water + Tween-80) was 107 % of control, the T/C (endpoint: median tumor weight change, dose: 40.0 mg/kg/injection, schedule: Q01DX001 (ip), vehicle: distilled water + Tween-80) was 100 % of control and the T/C (endpoint: median tumor weight change, dose: 80.0 mg/kg/injection, schedule: Q01DX001 (ip), vehicle: distilled water + Tween-80) was 110 % of control.

With O=C(NC/C(Cl)=C/Cl)Oc1cccc2ccccc12 the T/C (endpoint: mean tumor weight, dose: 0.78 mg/kg/injection, schedule: Q07DX004 (ip), vehicle: saline) was 78 % of control, the T/C (endpoint: mean tumor weight, dose: 1.56 mg/kg/injection, schedule: Q07DX004 (ip), vehicle: saline) was 91 % of control and the T/C (endpoint: mean tumor weight, dose: 3.12 mg/kg/injection, schedule: Q07DX004 (ip), vehicle: saline) was 112 % of control. For the same molecule, the T/C (endpoint: mean tumor weight, dose: 6.25 mg/kg/injection, schedule: Q07DX004 (ip), vehicle: saline) was 72 % of control and the T/C (endpoint: mean tumor weight, dose: 12.5 mg/kg/injection, schedule: Q07DX004 (ip), vehicle: saline) was 58 % of control.

With Nc1cc(Cl)c2[nH]cnc2n1 the T/C (endpoint: median tumor weight change, dose: 62.5 mg/kg/injection, schedule: Q01DX001 (ip), vehicle: distilled water + Tween-80) was 76 % of control, the T/C (endpoint: median tumor weight change, dose: 62.5 mg/kg/injection, schedule: Q01DX001 (ip), vehicle: water) was 111 % of control and the T/C (endpoint: median tumor weight change, dose: 125.0 mg/kg/injection, schedule: Q01DX001 (ip), vehicle: distilled water + Tween-80) was 88 % of control. For the same molecule, the T/C (endpoint: median tumor weight change, dose: 125.0 mg/kg/injection, schedule: Q01DX001 (ip), vehicle: water) was 100 % of control, the T/C (endpoint: median tumor weight change, dose: 250.0 mg/kg/injection, schedule: Q01DX001 (ip), vehicle: distilled water + Tween-80) was 58 % of control and the T/C (endpoint: median tumor weight change, dose: 250.0 mg/kg/injection, schedule: Q01DX001 (ip), vehicle: water) was 92 % of control. For the same molecule, the T/C (endpoint: median tumor weight change, dose: 500.0 mg/kg/injection, schedule: Q01DX001 (ip), vehicle: distilled water + Tween-80) was 82 % of control, the T/C (endpoint: median tumor weight change, dose: 500.0 mg/kg/injection, schedule: Q01DX001 (ip), vehicle: water) was 73 % of control and the T/C (endpoint: median tumor weight change, dose: 1000.0 mg/kg/injection, schedule: Q01DX001 (ip), vehicle: distilled water + Tween-80) was 42 % of control. The T/C (endpoint: median tumor weight change, dose: 1000.0 mg/kg/injection, schedule: Q01DX001 (ip), vehicle: water) was 80 % of control.
